Measured values published in patent US20070048356A1, “Antimicrobial treatment of nonwoven materials for infection control” (priority 2005, published 2007).

Legend:
Test in all cases: Dynamic Shake Flask (based on ASTM E 2149-01) on treated nonwoven
Type in all cases: cell-based
[1] = tested on: P. aeruginosa (ATCC 9027); conditions: Table 13
Experimental: (§1) The test organisms are grown in 25 mL appropriate broth medium for about 24±2 hours at 37±2° C. in a wrist action shaker. The bacterial culture is then transferred by placing about 100 μL aliquot in 25 mL of broth and grown again for about 24±2 hours at 37±2° C. The organisms are then centrifuged and washed three times with phosphate buffered saline (PBS). The organisms are then suspended in PBS to obtain an inoculum of approximately 1×10^8 CFU/mL.
(§2) The test articles and control swatches are exposed to an ultraviolet light source for about 5-10 minutes per side before testing to assure that the swatches are sanitized prior to inoculation with the bacteria. The test materials are brought into contact with a known population of test bacteria from the inoculum for a specified period of time. A sample is then plated at the end of the exposure time to enumerate the surviving bacteria. The log10 reduction form the control material and the original population is calculated using the following formula: Log10 Control*−Log10 CFU/swatch Test Article=Log10 Reduction
[…] This buffer solution contains a chemical to de-activate or “neutralize” the antimicrobial agent to (a) stop the active agent from killing the organisms after the designated time period and (b) to prevent artifacts that may arise from exposing the microorganisms to the antimicrobial in solution rather than solely on the substrate. Because each chemical used as an antimicrobial agent is a little different (ie: cationic, nonionic, metal, etc), a different neutralizer was likely added in each case to shut off the antimicrobial at the desired end point of the experiment. […] The neutralizer employed may be selected from a list that is commonly used in the field. […] Testing Mat.

C. Albicans (ATCC 10231) = conditions: Table 15, SMS
A. Niger (ATCC 16404) = conditions: Table 14, Spunbond
Experimental: as §1, §2
[…] This buffer solution contains a chemical to de-activate or “neutralize” the antimicrobial agent to (a) stop the active agent from killing the organisms after the designated time period and (b) to prevent artifacts that may arise from exposing the microorganisms to the antimicrobial in solution rather than solely on the substrate. Because each chemical used as an antimicrobial agent is a little different (ie: cationic, nonionic, metal, etc), a different neutralizer was likely added in each case to shut off the antimicrobial at the desired end point of the experiment. […] The neutralizer employed may be selected from a list that is commonly used in the field. These include, non-ionic degtergents, Bisulphate, lecithin, leethen broth, thiosulfate, thioglycolate, and pH buffers, Method similar to those described in American Society for Testing and Materials, Standard Practices for Evaluating Inactivators of Antimicrobial Agents Used in Disinfectant, Sanitizer, Antiseptic, or Preserved Products, Amer. Soc. Testing Mat. E 1054-91 (1991) can be used.

S. aureus (ATCC 6538) = conditions: Table 12

N-Alkyl Polyglycoside [1.0% Alkyl Polyglycoside]
Dynamic Shake Flask Log10 Reduction ([1]; Meltblown, contact time 1 min): 2.38 Log10 | Dynamic Shake Flask Log10 Reduction ([1]; Meltblown, contact time 5 min): 4 Log10 | Dynamic Shake Flask Log10 Reduction ([1]; Meltblown, contact time 15 min): 4 Log10 | Dynamic Shake Flask Log10 Reduction ([1]; SMS, contact time 1 min): 0.37 Log10 | Dynamic Shake Flask Log10 Reduction ([1]; SMS, contact time 5 min): 0.37 Log10 | Dynamic Shake Flask Log10 Reduction ([1]; SMS, contact time 15 min): 0.36 Log10 | Dynamic Shake Flask Log10 Reduction ([1]; Spunbond, contact time 1 min): 0.61 Log10 | Dynamic Shake Flask Log10 Reduction ([1]; Spunbond, contact time 5 min): 0.41 Log10 | Dynamic Shake Flask Log10 Reduction ([1]; Spunbond, contact time 15 min): 0.41 Log10 | Dynamic Shake Flask Log10 Reduction (C. Albicans (ATCC 10231); contact time 1 min): 0.59 Log10 | Dynamic Shake Flask Log10 Reduction (C. Albicans (ATCC 10231); contact time 5 min): 0.08 Log10 | Dynamic Shake Flask Log10 Reduction (C. Albicans (ATCC 10231); contact time 15 min): 0.19 Log10 | Dynamic Shake Flask Log10 Reduction (A. Niger (ATCC 16404); contact time 1 min): 0.64 Log10 | Dynamic Shake Flask Log10 Reduction (A. Niger (ATCC 16404); contact time 5 min): 0.53 Log10 | Dynamic Shake Flask Log10 Reduction (A. Niger (ATCC 16404); contact time 15 min): 0.50 Log10 | Dynamic Shake Flask Log10 Reduction (S. aureus (ATCC 6538); Meltblown, contact time 1 min): 2.97 Log10 | Dynamic Shake Flask Log10 Reduction (S. aureus (ATCC 6538); Meltblown, contact time 5 min): 4 Log10 | Dynamic Shake Flask Log10 Reduction (S. aureus (ATCC 6538); Meltblown, contact time 15 min): 4 Log10 | Dynamic Shake Flask Log10 Reduction (S. aureus (ATCC 6538); SMS, contact time 1 min): 0 Log10 | Dynamic Shake Flask Log10 Reduction (S. aureus (ATCC 6538); SMS, contact time 5 min): 0 Log10 | Dynamic Shake Flask Log10 Reduction (S. aureus (ATCC 6538); SMS, contact time 15 min): 0 Log10 | Dynamic Shake Flask Log10 Reduction (S. aureus (ATCC 6538); Spunbond, contact time 1 min): 0 Log10 | Dynamic Shake Flask Log10 Reduction (S. aureus (ATCC 6538); Spunbond, contact time 5 min): 0 Log10 | Dynamic Shake Flask Log10 Reduction (S. aureus (ATCC 6538); Spunbond, contact time 15 min): 0 Log10

PG-Hydroxyethylcellulose Cocodimonium Chloride
Dynamic Shake Flask Log10 Reduction ([1]; Meltblown, contact time 1 min): 0.34 Log10 | Dynamic Shake Flask Log10 Reduction ([1]; Meltblown, contact time 5 min): 0.35 Log10 | Dynamic Shake Flask Log10 Reduction ([1]; Meltblown, contact time 15 min): 0.42 Log10 | Dynamic Shake Flask Log10 Reduction ([1]; SMS, contact time 1 min): 4 Log10 | Dynamic Shake Flask Log10 Reduction ([1]; SMS, contact time 5 min): 4 Log10 | Dynamic Shake Flask Log10 Reduction ([1]; SMS, contact time 15 min): 4 Log10 | Dynamic Shake Flask Log10 Reduction ([1]; Spunbond, contact time 1 min): 4 Log10 | Dynamic Shake Flask Log10 Reduction ([1]; Spunbond, contact time 5 min): 4 Log10 | Dynamic Shake Flask Log10 Reduction ([1]; Spunbond, contact time 15 min): 4 Log10 | Dynamic Shake Flask Log10 Reduction (C. Albicans (ATCC 10231); contact time 1 min): 1.25 Log10 | Dynamic Shake Flask Log10 Reduction (C. Albicans (ATCC 10231); contact time 5 min): 2.12 Log10 | Dynamic Shake Flask Log10 Reduction (C. Albicans (ATCC 10231); contact time 15 min): 2.56 Log10 | Dynamic Shake Flask Log10 Reduction (A. Niger (ATCC 16404); contact time 1 min): 0.00 Log10 | Dynamic Shake Flask Log10 Reduction (A. Niger (ATCC 16404); contact time 5 min): 0.01 Log10 | Dynamic Shake Flask Log10 Reduction (A. Niger (ATCC 16404); contact time 15 min): 0.07 Log10 | Dynamic Shake Flask Log10 Reduction (S. aureus (ATCC 6538); Meltblown, contact time 1 min): 0.09 Log10 | Dynamic Shake Flask Log10 Reduction (S. aureus (ATCC 6538); Meltblown, contact time 5 min): 0.2 Log10 | Dynamic Shake Flask Log10 Reduction (S. aureus (ATCC 6538); Meltblown, contact time 15 min): 0.44 Log10 | Dynamic Shake Flask Log10 Reduction (S. aureus (ATCC 6538); SMS, contact time 1 min): 1.38 Log10 | Dynamic Shake Flask Log10 Reduction (S. aureus (ATCC 6538); SMS, contact time 5 min): 2.97 Log10 | Dynamic Shake Flask Log10 Reduction (S. aureus (ATCC 6538); SMS, contact time 15 min): 4 Log10 | Dynamic Shake Flask Log10 Reduction (S. aureus (ATCC 6538); Spunbond, contact time 1 min): 0.33 Log10 | Dynamic Shake Flask Log10 Reduction (S. aureus (ATCC 6538); Spunbond, contact time 5 min): 0.63 Log10 | Dynamic Shake Flask Log10 Reduction (S. aureus (ATCC 6538); Spunbond, contact time 15 min): 1.74 Log10

Chitosan glycolate [1.0% Chitosan]
Dynamic Shake Flask Log10 Reduction ([1]; Meltblown, contact time 1 min): 0.5 Log10 | Dynamic Shake Flask Log10 Reduction ([1]; Meltblown, contact time 5 min): 0.62 Log10 | Dynamic Shake Flask Log10 Reduction ([1]; Meltblown, contact time 15 min): 0.61 Log10 | Dynamic Shake Flask Log10 Reduction ([1]; SMS, contact time 1 min): 0.81 Log10 | Dynamic Shake Flask Log10 Reduction ([1]; SMS, contact time 5 min): 4 Log10 | Dynamic Shake Flask Log10 Reduction ([1]; SMS, contact time 15 min): 4 Log10 | Dynamic Shake Flask Log10 Reduction ([1]; Spunbond, contact time 1 min): 0.47 Log10 | Dynamic Shake Flask Log10 Reduction ([1]; Spunbond, contact time 5 min): 2.16 Log10 | Dynamic Shake Flask Log10 Reduction ([1]; Spunbond, contact time 15 min): 4 Log10 | Dynamic Shake Flask Log10 Reduction (C. Albicans (ATCC 10231); contact time 1 min): 0.04 Log10 | Dynamic Shake Flask Log10 Reduction (C. Albicans (ATCC 10231); contact time 5 min): 0.13 Log10 | Dynamic Shake Flask Log10 Reduction (C. Albicans (ATCC 10231); contact time 15 min): 1 Log10 | Dynamic Shake Flask Log10 Reduction (A. Niger (ATCC 16404); contact time 1 min): 0.11 Log10 | Dynamic Shake Flask Log10 Reduction (A. Niger (ATCC 16404); contact time 5 min): 0.27 Log10 | Dynamic Shake Flask Log10 Reduction (A. Niger (ATCC 16404); contact time 15 min): 0.31 Log10 | Dynamic Shake Flask Log10 Reduction (S. aureus (ATCC 6538); Meltblown, contact time 1 min): 0.26 Log10 | Dynamic Shake Flask Log10 Reduction (S. aureus (ATCC 6538); Meltblown, contact time 5 min): 0.21 Log10 | Dynamic Shake Flask Log10 Reduction (S. aureus (ATCC 6538); Meltblown, contact time 15 min): 0.25 Log10 | Dynamic Shake Flask Log10 Reduction (S. aureus (ATCC 6538); SMS, contact time 1 min): 0.03 Log10 | Dynamic Shake Flask Log10 Reduction (S. aureus (ATCC 6538); SMS, contact time 5 min): 0.57 Log10 | Dynamic Shake Flask Log10 Reduction (S. aureus (ATCC 6538); SMS, contact time 15 min): 1.03 Log10 | Dynamic Shake Flask Log10 Reduction (S. aureus (ATCC 6538); Spunbond, contact time 1 min): 0 Log10 | Dynamic Shake Flask Log10 Reduction (S. aureus (ATCC 6538); Spunbond, contact time 5 min): 0.64 Log10 | Dynamic Shake Flask Log10 Reduction (S. aureus (ATCC 6538); Spunbond, contact time 15 min): 2.05 Log10
